According to patent US20060223876A1, “Indoloquinone Tumor Radiation Sensitization” (priority 2005, published 2006):
Where two headings read alike, the source gives them in different places.

What was measured:
[1] = system: U-87 human glioblastoma cells
Experimental: U-87 human glioblastoma cells (American Type Culture Collection) were maintained in alpha MEM medium (Sigma) with 10% fetal bovine serum (Atlanta Biologicals). A U-87 cell suspension was injected subcutaneously into the right hind limb (5×10^5 cells in 100 μl PBS) of athymic NCR NUM mice (Taconic Farms) and allowed to grow to a hypoxic volume of ˜550 mm^3 before treatment. Tumors were treated with EO9 and a fractionated radiation therapy schedule to test the hypothesis that EO9 would sensitize tumor cells to radiation therapy. EO9 or vehicle was administered 30 minutes after each radiation therapy fraction on day 1, 2, and 3. The study used 4 treatment groups: vehicle (DMSO), radiation therapy alone (3 days×7.5 Gy), EO9 (3 days×2 mg/kg), and EO9 +radiation therapy (3 days×7.5 Gy×2 mg/kg). EO9 was administered locally by intra-tumoral injection to achieve optimal delivery.
Irradiations were performed on anesthetized mice using an X-ray machine (Pantak) operating at 250 kV, 10 mA, with a 2-mm aluminum filtration. The effective photon energy was 90 keV. Mice were anesthetized with a combination of Ketamine and Acepromazine at a concentration of 75 mg/kg and 0.30 mg/kg respectively. Each mouse was confined in a lead casing with its tumor-bearing leg extended through an opening on the side to allow the tumor to be irradiated locally.
Mixed-effects regression was used to model the base-10 logarithm of tumor volume as a function of time and treatment (tumor growth analyses). The log-transformed outcome was used because tumors of this size grow approximately exponentially, and therefore the logarithm of the tumor volume is approximately linear over time. This approach appropriately handles unbalanced data, such as a different number of measurements for different animals, and takes into account the correlation of each animal's measurements over time. These analyses were carried out with SAS 8.2 (SAS Institute Inc., Cary, N.C., 1999-2001).

[2] = system: U-87 human glioblastoma cells; assay: Long term study: EO9 and radiation therapy two non-consecutive days a week for 3 weeks, U-87 tumor xenograft growth; type: in vivo, athymic NCR NUM mice; conditions: for % Δ: average rate of increase of tumor volume / T2x: average doubling time of tumor volume: 2 days a week for 3 weeks
Experimental: The effective photon energy was 90 keV.
A protocol was investigated where EO9 and radiation therapy were administered over a longer period of time. In this study, EO9 or radiation therapy was delivered alone or in combination on two non-consecutive days a week for 3 weeks. Six groups received vehicle alone (DMSO), vehicle 30 minutes before radiation therapy (2 days×7.5 Gy), vehicle 30 minutes after radiation therapy (2 days×7.5 Gy), E09 only (2 days×3 mg/kg), EO9 […], and EO9 30 minutes after radiation therapy.

[3] = EO9 + radiation therapy (3 days x 7.5 Gy x 2 mg/kg), EO9 30 minutes after each fraction
[4] = EO9 3 mg/kg 30 minutes after radiation therapy (7.5 Gy)
[5] = EO9 3 mg/kg before radiation therapy (7.5 Gy)
[6] = EO9 only, 3 mg/kg intra-tumoral

## Cn1c(/C=C/CO)c(CO)c2c1C(=O)C=C(N1CC1)C2=O [EO9, 3-hydroxymethyl-5-aziridinyl-1-methyl-2-(1 H-indole-4,7-dione)-prop-β-en-α-ol]
[1]; EO9 + radiation therapy
  nature of the combination effect of EO9 and radiation therapy: additive
[1]; [3]
  Estimated Time (Days) for tumors to reach 2000 mm^3: 20.8 days
  T2x: average doubling time of tumor volume: 11.7 days
[1]; EO9 + radiation therapy (3 days x 7.5 Gy x 2 mg/kg), EO9 intra-tumoral 30 minutes after each fraction
  % Δ (95% CI): average rate of increase of tumor volume: 6 (4, 8) % daily increase
[1]; EO9 alone, 3 days x 2 mg/kg
  increase of tumor doubling time vs. control: 1.4 days
[1]; EO9 alone, 3 days x 2 mg/kg intra-tumoral
  Estimated Time (Days) for tumors to reach 2000 mm^3: 8.6 days
[1]; EO9 alone, 3 days x 2 mg/kg intra-tumoral, tumors ~550 mm^3
  % Δ (95% CI): average rate of increase of tumor volume: 16 (14, 19) % daily increase
[1]; EO9 and radiation therapy
  rate of tumor growth compared with the other groups: slowest rate of tumor growth
[1]; combination of EO9 and radiation therapy
  increase of mean tumor doubling time vs. control: 8.5 days
[2]; [4]
  % Δ: average rate of increase of tumor volume: 8 % daily increase
  T2x: average doubling time of tumor volume: 9.1 days
[2]; [5]
  % Δ: average rate of increase of tumor volume: 4 % daily increase
  T2x: average doubling time of tumor volume: 17.3 days
[2]; EO9 administered before radiation therapy
  effectiveness of dosing schedule: most effective dosing schedule
[2]; [6]
  % Δ: average rate of increase of tumor volume: 12 % daily increase
  T2x: average doubling time of tumor volume: 6.1 days
[2]; groups receiving EO9 before or after radiation therapy combined into a single group (FIG. 8)
  rate of tumor volume growth compared with the other groups: slowest rate of tumor volume growth
